This data set has as its system mouse liver microsomes, LC-MS/MS half-life. The experiment in a line: Inhibitors of Cruzain: Metabolic Stability Theory. Particulars: at 1 µM; stronger effect = higher value. From the text: Chagas Disease is a neglected tropical disease that affects over 16 million people in Latin America. The cysteine protease cruzain is essential for the survival Trypanosoma cruzi, the parasitic agent responsible for Chagas disease. Potential intervention for T. cruzi includes the inhibition of cruzain. This bioassay will summarize the ongoing development of small molecule cruzain inhbitiors. Currently, a screen of ~200k compounds and through extensive follow-up work a probe was identified. To further characterize the probe, it was tested in in vitro ADME assays. Mouse liver microsomes are created through broken up endoplasmic reticulum from mouse liver. These liver microsomes contain many drug metabolizing enzymes, such as Cytochome P-450s and flavin-containing monooxygenases. Because metabolism is major way of drug clearance, this is an important result. NIH Chemical Genomics Center [NCGC] NIH Molecular Libraries Probe Production Centers Network [MLPCN] MLSCN Grant: DA024891-01 PI Name: Dr. Brian Shoichet; University of California, San Francisco
1uM of compound in incubated in mouse liver microsome; the reference compound is ketanserin. Compounds are incubated at 37 degrees C for different time periods: 0, 5, 15, 30, 45, and 60 minutes. Samples are analyzed with LC-MS/MS.

Usually half-life stands for how long it takes for the measured level to halve. Turning to `Cc1ccc(OCCn2c(CCNC(=O)C3CCCCC3)nc3ccccc32)cc1`, the half-life was 8 min.

The values are drawn from PubChem BioAssay AID504754 (National Center for Advancing Translational Sciences (NCATS), 2011).
